One assay has as its system U87-MG human glioma cell. The assay is described as follows: Cell proliferation analysis (MTT). Type of assay: cell-based. The settings on record: for activity at 10 µM / inhibition at 10 µM: Homo sapiens, U-87 MG, 48 h; for activity at 10 µM / inhibition at 10 µM / Cell Proliferation (%): two days, 10 µM. The protocol: (§1) U87-MG and U138-MG human glioma cell, were incubated with 10% fetal bovine serum (FBS) (Gibco, 10500-064), 1% L-glutamine (Gibco, 25030-024), in a humidified incubator with 5% CO2 at 37 °C. The cells were contained in DMEM High Glucose (Gibco, 41966-029) supplemented with 1% penicillin-streptomycin (P/S) (Gibco 15140-122) solution. The cytotoxic effects of the target compounds on U87-MG and U138-MG cell lines were assessed using the MTT (Thiazolyl Blue Tetrazolium Bromide) method. 7×10^3 cells were seeded into a 96-well plate in 100 µl DMEM High Glucose 10% FBS and 1% P/S. 24 hours after cell incubation, each target compound was added at a dose of 10 µM and the drug treatment was carried out for two days. After the incubation period, 10 µL of MTT solution was added to each well (5 mg/ml in PBS). After 2 hours, MTT solutions were removed from the wells. Then, 100 µl DMSO was added, and mixed to dissolve the formazan crystals. Cell proliferation was analysed by measuring the absorbance of dissolved formazan at a wavelength of 570 nm.
(§2) IC50 values were determined using the same method as above wherein the cells were treated with the target compounds at different doses.

The subject of assay [1] is U138-MG human glioma cell. The assay is described as follows: Cell proliferation analysis (MTT). The class given is cell-based. The settings on record: MTT; for activity at 10 µM / inhibition at 10 µM: Homo sapiens, 48 h; for activity at 10 µM / inhibition at 10 µM / Cell Proliferation (%): two days, 10 µM. The protocol:
as §1, §2

In the case of `O=C1CCc2cc(OCc3cn(CCCN4C(=O)c5ccccc5C4=O)nn3)ccc2N1` [TR-G117, 2-(3-(4-(((2-oxo-1,2,3,4-tetrahydroquinolin-6-yl)oxy)methyl)-1H-1,2,3-triazol-1-yl)propyl)isoindoline-1,3-dione], the activity at 10 µM in the assay with U87-MG human glioma cell (MTT) was determined as 96%; in assay [1] it was 106%. The inhibition (in general, the change of the read-out against control, counted positive when it falls) at 10 µM in the assay on U87-MG human glioma cell (MTT) is 4%; in assay [1] it was -6%.

As for `O=C(COc1ccc2c(c1)CCC(=O)N2)N/N=C/c1ccc(-c2ccccc2)cc1` [TR-G145, (E)-N'-([1,1'-biphenyl}-4-ylmethylene)-2-((2-oxo-1,2,3,4-tetrahydroquinolin-6-yl)oxy)acetohydrazide], in the assay on U87-MG human glioma cell (MTT), the activity at 10 µM is 49% and the inhibition at 10 µM is 51%. Besides, in assay [1], the activity at 10 µM amounted to 59% and the inhibition at 10 µM came to 41%.

As for `O=C1CCc2cc(OCCCCc3nnnn3C3CCCCC3)ccc2N1CCCc1ccccc1` [TR-G106, 6-(4-(1-cyclohexyl-1H-tetrazol-5-yl)butoxy)-1-(3-phenylpropyl)-3,4-dihydroquinolin-2(1H)-one], in the assay on U87-MG human glioma cell (MTT), the activity at 10 µM stood at 73% and the inhibition at 10 µM amounted to 27%. In assay [1], the activity at 10 µM came out at 66% and the inhibition at 10 µM was 35%.

In the case of `O=C(COc1ccc2c(c1)CCC(=O)N2)N/N=C1\C(=O)Nc2ccc(F)cc21` [TR-G050, (Z)-N'-(5-fluoro-2-oxoindolin-3-ylidene)-2-((2-oxo-1,2,3,4-tetrahydroquinolin-6-yl)oxy)acetohydrazide], in the assay with U87-MG human glioma cell (MTT), the activity at 10 µM was 69% and the inhibition at 10 µM turned out to be 31%. Moreover, in assay [1], the activity at 10 µM turned out to be 54% and the inhibition at 10 µM stood at 46%.

Turning to `CC(C)CCN1C(=O)CCc2cc(OCCCCc3nnnn3C3CCCCC3)ccc21` [TR-G101, 6-(4-(1-cyclohexyl-1H-tetrazol-5-yl)butoxy)-1-isopentyl-3,4-dihydroquinolin-2(1H)-one], in the assay on U87-MG human glioma cell (MTT), the activity at 10 µM came to 76% and the inhibition at 10 µM was determined as 24%. Also, in assay [1], the activity at 10 µM is 76% and the inhibition at 10 µM was determined as 24%.

`CCOC(=O)Cn1cc(COc2ccc3c(c2)CCC(=O)N3)nn1` [TR-G033, Ethyl 2-(4-(((2-oxo-1,2,3,4-tetrahydroquinolin-6-yl)oxy)methyl)-1H-1,2,3-triazol-1-yl)acetate]: in the assay with U87-MG human glioma cell (MTT), the activity at 10 µM was 82% and the inhibition at 10 µM is 19%. Besides, in assay [1], the activity at 10 µM turned out to be 71% and the inhibition at 10 µM came out at 29%.

Regarding `O=C1CCc2cc(OCC(=O)N3CCN(c4ccc(C(F)(F)F)cc4)CC3)ccc2N1` [TR-G087, 6-(2-oxo-2-(4-(4-(trifluoromethyl)phenyl)piperazin-1-yl)ethoxy)-3,4-dihydroquinolin-2(1H)-one], in the assay with U87-MG human glioma cell (MTT), the activity at 10 µM was 58% and the inhibition at 10 µM stood at 42%. In assay [1], the activity at 10 µM is 55% and the inhibition at 10 µM stood at 45%.

Take `Cc1ccc(CN2C(=O)CCc3cc(OCCCCc4nnnn4C4CCCCC4)ccc32)cc1` [TR-G104, 6-(4-(1-cyclohexyl-1H-tetrazol-5-yl)butoxy)-1-(4-methylbenzyl)-3,4-dihydroquinolin-2(1H)-one]: in the assay on U87-MG human glioma cell (MTT), the activity at 10 µM was 49% and the inhibition at 10 µM was 51%. In addition, in assay [1], the activity at 10 µM amounted to 83% and the inhibition at 10 µM was determined as 17%.

Turning to `C=CC(=O)N(NC(=O)COc1ccc2c(c1)CCC(=O)N2)C(=O)C=C` [TR-G040, N-acryloyl-N'-(2-((2-oxo-1,2,3,4-tetrahydroquinolin-6-yl)oxy)acetyl)acrylohydrazide], the “Cell Proliferation (%)” value with U87-MG human glioma cell (MTT) came to 91%; in assay [1], 98%. Further, the inhibition at 10 µM in the assay on U87-MG human glioma cell (MTT) is 9%; in assay [1] it was 2%.

For the molecule `O=C1CCc2cc(OCCCBr)ccc2N1` [TR-G074, 6-(3-bromopropoxy)-3,4-dihydroquinolin-2(1H)-one], in the assay on U87-MG human glioma cell (MTT), the “Cell Proliferation (%)” value was found to be 85% and the inhibition at 10 µM came out at 15%. In assay [1], the “Cell Proliferation (%)” value is reported as 81% and the inhibition at 10 µM stood at 19%.

As for `COc1ccc(C(=O)Oc2ccc3c(c2)CCC(=O)N3)cc1OC` [TR-G008, 2-oxo-1,2,3,4-tetrahydroquinolin-6-yl 3,4-dimethoxybenzoate], in the assay with U87-MG human glioma cell (MTT), the activity at 10 µM came out at 63% and the inhibition at 10 µM is 37%. In addition, in assay [1], the activity at 10 µM turned out to be 65% and the inhibition at 10 µM came out at 35%.

On to `O=C1CCc2cc(OCc3cc(-c4ccc(F)cc4)no3)ccc2N1` [TR-G142, 6-((3-(4-fluorophenyl)isoxazol-5-yl)methoxy)-3,4-dihydroquinolin-2(1H)-one], for which, in the assay on U87-MG human glioma cell (MTT), the activity at 10 µM amounted to 55% and the inhibition at 10 µM came out at 46%. For the same molecule, in assay [1], the activity at 10 µM amounted to 70% and the inhibition at 10 µM stood at 30%.

Turning to `O=C1CCc2cc(OC(=O)Nc3ccccc3Cl)ccc2N1` [TR-G096, 2-oxo-1,2,3,4-tetrahydroquinolin-6-yl (2-chlorophenyl)carbamate], in the assay on U87-MG human glioma cell (MTT), the activity at 10 µM came out at 75% and the inhibition at 10 µM was determined as 25%. Besides, in assay [1], the activity at 10 µM was 70% and the inhibition at 10 µM was found to be 30%.

For the molecule `O=C(COc1ccc2c(c1)CCC(=O)N2)Nc1ccc(Br)cc1` [TR-G123], in the assay on U87-MG human glioma cell (MTT), the activity at 10 µM stood at 92% and the inhibition at 10 µM is 8%. Also, in assay [1], the activity at 10 µM amounted to 109% and the inhibition at 10 µM is -9%.

Consider `CC(C)C/C=N/NC(=O)COc1ccc2c(c1)CCC(=O)N2` [TR-G003, (E)-N'-(3-methylbutylidene)-2-((2-oxo-1,2,3,4-tetrahydroquinolin-6-yl)oxy)acetohydrazide], for which, in the assay on U87-MG human glioma cell (MTT), the activity at 10 µM turned out to be 79% and the inhibition at 10 µM was 21%. For the same molecule, in assay [1], the activity at 10 µM came out at 84% and the inhibition at 10 µM came out at 16%.

`O=C(COc1ccc2c(c1)CCC(=O)N2)Nc1ccc(F)c(Cl)c1` [TR-G075, N-(3-chloro-4-fluorophenyl)-2-((2-oxo-1,2,3,4-tetrahydroquinolin-6-yl)oxy)acetamide]: the activity at 10 µM in the assay with U87-MG human glioma cell (MTT) is 68%; in assay [1] it was 85%. The inhibition at 10 µM in the assay on U87-MG human glioma cell (MTT) is 32%; in assay [1] it was 15%.

Consider `O=C1CCc2cc(OC(=O)Nc3ccccc3)ccc2N1` [TR-G131, 2-oxo-1,2,3,4-tetrahydroquinolin-6-yl phenylcarbamate], for which, in the assay on U87-MG human glioma cell (MTT), the activity at 10 µM worked out at 79% and the inhibition at 10 µM is 21%. Further, in assay [1], the activity at 10 µM was determined as 54% and the inhibition at 10 µM came out at 46%.

For `O=C1CCc2cc(OS(=O)(=O)c3cccc(Cl)c3Cl)ccc2N1` [TR-G042, 2-oxo-1,2,3,4-tetrahydroquinolin-6-yl 2,3-dichlorobenzenesulfonate], in the assay with U87-MG human glioma cell (MTT), the “Cell Proliferation (%)” value is recorded as 70% and the inhibition at 10 µM is 31%. In assay [1], the “Cell Proliferation (%)” value is recorded as 83% and the inhibition at 10 µM is 17%.

As for `O=C1CCc2cc(OC(=O)Nc3ccccc3C(F)(F)F)ccc2N1` [TR-G137, 2-oxo-1,2,3,4-tetrahydroquinolin-6-yl (2-(trifluoromethyl)phenyl)carbamate], the activity at 10 µM in the assay with U87-MG human glioma cell (MTT) was determined as 73%; in assay [1], 60%. Moreover, the inhibition at 10 µM is 27% in the assay on U87-MG human glioma cell (MTT) and 40% in assay [1].

Regarding `O=C(COc1ccc2c(c1)CCC(=O)N2)N/N=C/c1ccc([N+](=O)[O-])cc1` [TR-G055, (E)-N'-(4-nitrobenzylidene)-2-((2-oxo-1,2,3,4-tetrahydroquinolin-6-yl)oxy)acetohydrazide], in the assay with U87-MG human glioma cell (MTT), the activity at 10 µM was 85% and the inhibition at 10 µM is 15%. Besides, in assay [1], the activity at 10 µM was 92% and the inhibition at 10 µM is 8%.

For `O=C1CCc2cc(OCCCCc3nnnn3C3CCCCC3)ccc2N1` [Cilostazol, reference compound], in the assay on U87-MG human glioma cell (reference drugs, MTT), the “Inhibition (%)” value was found to be 22% and the “Proliferation (%)” value is 78%. Also, in assay [1] (reference drugs), the “Inhibition (%)” value came out at 12% and the “Proliferation (%)” value is 88%.

Regarding `O=C(COc1ccc2c(c1)CCC(=O)N2)Nc1ccc([N+](=O)[O-])cn1` [TR-G122, N-(5-nitropyridin-2-yl)-2-((2-oxo-1,2,3,4-tetrahydroquinolin-6-yl)oxy)acetamide], in the assay with U87-MG human glioma cell (MTT), the activity at 10 µM amounted to 82% and the inhibition at 10 µM amounted to 18%. For the same molecule, in assay [1], the activity at 10 µM was 90% and the inhibition at 10 µM is 11%.

For the molecule `O=C1CCc2cc(OCCCCOC(=O)c3ccccc3)ccc2N1` [TR-G013, 4-((2-oxo-1,2,3,4-tetrahydroquinolin-6-yl)oxy)butyl benzoate], in the assay with U87-MG human glioma cell (MTT), the activity at 10 µM came out at 71% and the inhibition at 10 µM turned out to be 29%. In assay [1], the activity at 10 µM was found to be 78% and the inhibition at 10 µM worked out at 22%.

With `C=CC(=O)Oc1ccc2c(c1)CCC(=O)N2` [TR-G039, 2-oxo-1,2,3,4-tetrahydroquinolin-6-yl acrylate], in the assay on U87-MG human glioma cell (MTT), the activity at 10 µM worked out at 59% and the inhibition at 10 µM came to 41%. Further, in assay [1], the activity at 10 µM stood at 75% and the inhibition at 10 µM worked out at 25%.

`O=C1CCc2cc(OCc3cn(-c4cccc5[nH]ncc45)nn3)ccc2N1` [TR-G078, 6-((1-(1H-indazol-4-yl)-1H-1,2,3-triazol-4-yl)methoxy)-3,4-dihydroquinolin-2(1H)-one]: in the assay on U87-MG human glioma cell (MTT), the activity at 10 µM came to 44% and the inhibition at 10 µM is 56%. The “top 5 target compounds whose treatment resulted in the lowest proliferation” value with U87-MG human glioma cell (ranking) is recorded as “top 5”. In assay [1], the activity at 10 µM is 57% and the inhibition at 10 µM was found to be 43%.

The values above are taken from EP4644375A1, “SUBSTITUTED HYDROQUINOLINES FOR THE TREATMENT OF GLIOBLASTOMA MULTIFORME” (Molius Saglik Teknolojileri Anonim Sirketi, priority 2024, dated 2025).
